# Measurements taken from patent publication US20240408085A1, “COMPOUND FOR DEGRADATION OF BCL-2 FAMILY PROTEINS AND MEDICAL APPLICATION THEREOF” (XIZANG HAISCO PHARMACEUTICAL CO., LTD., priority 2021, published 2024).
# System: MOLT-4 cells
# Test: Cell proliferation activity in MOLT-4 cells (72 h, cell viability luminescence)
# Format: cell-based, human
# Details: Homo sapiens, read-out: IC50 for the inhibition of MOLT-4 cell proliferation
# Description: MOLT-4 cells are acute lymphoblastic leukemia cell lines in humans. The cells were purchased from ATCC. Culture conditions: RPMI-1640+10% FBS+1% penicillin-streptomycin solution. The cells were cultured in a 37° C., 5% CO2 incubator. The cells were plated in a 96-well plate, with 5×10^3 cells/well. After plating, compounds at different concentrations were added and cultured in a 37° C., 5% CO2 incubator for 72 h. After the completion of culture, a reagent (Promega, G7573) for detecting the cell viability was added. The mixture was uniformly mixed for 2 minutes and then incubated at room temperature for 10 minutes. The luminescence signal was detected with a multimode plate reader (BMG, PHERAstar FSX). The luminescence readings were processed using GraphPad Prism 8.0 software and the IC50 values of the compounds for the inhibition of cell proliferation and the maximum inhibition rate were calculated according to formula (2) and formula (3), respectively, wherein Tadministration denotes the cell signal readings obtained after incubation with the compounds for 72 h, and Tvehicle denotes the cell signal readings obtained after incubation with the vehicle control for 72 h.
# Calculation of Max inhibition %: after the processing according to formula (2), the inhibition rate of the compounds at the highest concentration was calculated.
row,SMILES,IC50
1,"Cc1ncsc1-c1ccc([C@H](C)NC(=O)[C@@H]2C[C@@H](O)CN2C(=O)[C@@H](NC(=O)CCCCCCC(=O)N2C[C@H]3CN(CC[C@H](CSc4ccccc4)Nc4ccc(S(=O)(=O)NC(=O)c5ccc(N6CCN(CC7=C(c8ccc(Cl)cc8)CCC(C)(C)C7)CC6)cc5)cc4S(=O)(=O)C(F)(F)F)C[C@H]3C2)C(C)(C)C)cc1 [Compound 17, cis-(2S,4R)-1-((S)-2-(8-(5-((R)-3-((4-(N-(4-(4-((4′-chloro-4,4-dimethyl-3,4,5,6-tetrahydro-[1,1′-biphenyl]-2-yl)methyl)piperazin-1-yl)benzoyl)sulfamoyl)-2-((trifluoromethyl)sulfonyl)phenyl)amino)-4-(phenylthio)butyl)hexahydropyrrolo[3,4-c]pyrrol-2(1H)-yl)-8-oxooctanamido)-3,3-dimethylbutanoyl)-4-hydroxy-N—((S)-1-(4-(4-methylthiazol-5-yl)phenyl)ethyl)pyrrolidine-2-carboxamide]",< 500 nM
2,"Cc1ncsc1-c1ccc([C@H](C)NC(=O)[C@@H]2C[C@@H](O)CN2C(=O)[C@@H](NC(=O)CCCCCCC(=O)N2C[C@@H]3C[C@H]2CN3CC[C@H](CSc2ccccc2)Nc2ccc(S(=O)(=O)NC(=O)c3ccc(N4CCN(CC5=C(c6ccc(Cl)cc6)CCC(C)(C)C5)CC4)cc3)cc2S(=O)(=O)C(F)(F)F)C(C)(C)C)cc1 [Compound 25, (2S,4R)-1-((S)-2-(8-((1S,4S)-5-((R)-3-((4-(N-(4-(4-((4′-chloro-4,4-dimethyl-3,4,5,6-tetrahydro-[1,1′-biphenyl]-2-yl)methyl)piperazin-1-yl)benzoyl)sulfamoyl)-2-((trifluoromethyl)sulfonyl)phenyl)amino)-4-(phenylthio)butyl)-2,5-diazabicyclo[2.2.1]heptan-2-yl)-8-oxooctanamido)-3,3-dimethylbutanoyl)-4-hydroxy-N—((S)-1-(4-(4-methylthiazol-5-yl)phenyl)ethyl)pyrrolidine-2-carboxamide]",< 500 nM
3,"Cc1ncsc1-c1ccc([C@H](C)NC(=O)[C@@H]2C[C@@H](O)CN2C(=O)[C@@H](NC(=O)CCCCCCC(=O)N2C[C@H]3CN(CC[C@H](CSc4ccccc4)Nc4ccc(S(=O)(=O)NC(=O)c5ccc(N6CCN(CC7=C(c8ccc(Cl)cc8F)CCCCC7)CC6)cc5)cc4S(=O)(=O)C(F)(F)F)C[C@H]3C2)C(C)(C)C)cc1 [Compound 40, cis-(2S,4R)-1-((S)-2-(8-(5-((R)-3-((4-(N-(4-(4-((2-(4-chloro-2-fluorophenyl)cyclohept-1-en-1-yl)methyl)piperazin-1-yl)benzoyl)sulfamoyl)-2-((trifluoromethyl)sulfonyl)phenyl)amino)-4-(phenylthio)butyl)hexahydropyrrolo[3,4-c]pyrrol-2(1H)-yl)-8-oxooctanamido)-3,3-dimethylbutanoyl)-4-hydroxy-N—((S)-1-(4-(4-methylthiazol-5-yl)phenyl)ethyl)pyrrolidine-2-carboxamide]",< 500 nM
4,"Cc1ncsc1-c1ccc([C@H](C)NC(=O)[C@@H]2C[C@@H](O)CN2C(=O)[C@@H](NC(=O)CCCCCC(=O)N2CCN(CC[C@H](CSc3ccccc3)Nc3ccc(S(=O)(=O)NC(=O)c4ccc(N5CCN(CC6=C(c7ccc(Cl)cc7F)CCCCC6)CC5)cc4)cc3S(=O)(=O)C(F)(F)F)CC2)C(C)(C)C)cc1 [Compound 35, (2S,4R)-1-((S)-2-(7-(4-((R)-3-((4-(N-(4-(4-((2-(4-chloro-2-fluorophenyl)cyclohept-1-en-1-yl)methyl)piperazin-1-yl)benzoyl)sulfamoyl)-2-((trifluoromethyl)sulfonyl)phenyl)amino)-4-(phenylthio)butyl)piperazin-1-yl)-7-oxoheptanamido)-3,3-dimethylbutanoyl)-4-hydroxy-N—((S)-1-(4-(4-methylthiazol-5-yl)phenyl)ethyl)pyrrolidine-2-carboxamide]",< 500 nM
5,"Cc1ncsc1-c1ccc([C@H](C)NC(=O)[C@@H]2C[C@@H](O)CN2C(=O)[C@@H](NC(=O)CCCCCC(=O)N2C[C@]3(C)CN(CC[C@H](CSc4ccccc4)Nc4ccc(S(=O)(=O)NC(=O)c5ccc(N6CCN(CC7=C(c8ccc(Cl)cc8)CCC(C)(C)C7)CC6)cc5)cc4S(=O)(=O)C(F)(F)F)C[C@]3(C)C2)C(C)(C)C)cc1 [Compound 26, cis-(2S,4R)-1-((S)-2-(7-(5-((R)-3-((4-(N-(4-(4-((4′-chloro-4,4-dimethyl-3,4,5,6-tetrahydro-[1,1′-biphenyl]-2-yl)methyl)piperazin-1-yl)benzoyl)sulfamoyl)-2-((trifluoromethyl)sulfonyl)phenyl)amino)-4-(phenylthio)butyl)-3a,6a-dimethylhexahydropyrrolo[3,4-c]pyrrol-2(1H)-yl)-7-oxoheptanamido)-3,3-dimethylbutanoyl)-4-hydroxy-N—((S)-1-(4-(4-methylthiazol-5-yl)phenyl)ethyl)pyrrolidine-2-carboxamide]",< 500 nM
6,"Cc1ncsc1-c1ccc([C@H](C)NC(=O)[C@@H]2C[C@@H](O)CN2C(=O)[C@@H](NC(=O)CCCCCC(=O)N2CCN(CC[C@H](CSc3ccccc3)Nc3ccc(S(=O)(=O)NC(=O)c4ccc(N5CCN(CC6=C(c7ccc(Cl)cc7)CCOC6)CC5)cc4)cc3S(=O)(=O)C(F)(F)F)CC2)C(C)(C)C)cc1 [Compound 5, (2S,4R)-1-((S)-2-(7-(4-((R)-3-((4-(N-(4-(4-((4-(4-chlorophenyl)-5,6-dihydro-2H-pyran-3-yl)methyl)piperazin-1-yl)benzoyl)sulfamoyl)-2-((trifluoromethyl)sulfonyl)phenyl)amino)-4-(phenylthio)butyl)piperazin-1-yl)-7-oxoheptanamido)-3,3-dimethylbutanoyl)-4-hydroxy-N—((S)-1-(4-(4-methylthiazol-5-yl)phenyl)ethyl)pyrrolidine-2-carboxamide]",< 500 nM
7,"Cc1ncsc1-c1ccc([C@H](C)NC(=O)[C@@H]2C[C@@H](O)CN2C(=O)[C@@H](NC(=O)CCCCCCC(=O)N2C[C@H]3CN(CC[C@H](CSc4ccccc4)Nc4ccc(S(=O)(=O)NC(=O)c5ccc(N6CCN(CC7=C(c8ccc(Cl)cc8)CCC8(CC8)C7)CC6)cc5)cc4S(=O)(=O)C(F)(F)F)C[C@H]3C2)C(C)(C)C)cc1 [Compound 22, cis-(2S,4R)-1-((S)-2-(8-(5-((R)-3-((4-(N-(4-(4-((6-(4-chlorophenyl)spiro[2.5]oct-5-en-5-yl)methyl)piperazin-1-yl)benzoyl)sulfamoyl)-2-((trifluoromethyl)sulfonyl)phenyl)amino)-4-(phenylthio)butyl)hexahydropyrrolo[3,4-c]pyrrol-2(1H)-yl)-8-oxooctanamido)-3,3-dimethylbutanoyl)-4-hydroxy-N—((S)-1-(4-(4-methylthiazol-5-yl)phenyl)ethyl)pyrrolidine-2-carboxamide]",< 500 nM

# Same assay, conditions: read-out: IC50 for the inhibition of MOLT-4 cell proliferation
row,SMILES,IC50
1,"Cc1ncsc1-c1ccc([C@H](C)NC(=O)[C@@H]2C[C@@H](O)CN2C(=O)[C@@H](NC(=O)CCCCCCC(=O)N2CCN(CC[C@H](CSc3ccccc3)Nc3ccc(S(=O)(=O)NC(=O)c4ccc(N5CCN(CC6=C(c7ccc(Cl)cc7F)CCC7(CC7)C6)CC5)cc4)cc3S(=O)(=O)C(F)(F)F)CC2)C(C)(C)C)cc1 [Compound 32, (2S,4R)-1-((S)-2-(8-(4-((R)-3-((4-(N-(4-(4-((6-(4-chloro-2-fluorophenyl)spiro[2.5]oct-5-en-5-yl)methyl)piperazin-1-yl)benzoyl)sulfamoyl)-2-((trifluoromethyl)sulfonyl)phenyl)amino)-4-(phenylthio)butyl)piperazin-1-yl)-8-oxoheptanamido)-3,3-dimethylbutanoyl)-4-hydroxy-N—((S)-1-(4-(4-methylthiazol-5-yl)phenyl)ethyl)pyrrolidine-2-carboxamide]",< 500 nM
